Patent publication US8729061B2, “Pyrrolidine derivatives” (Hoffmann-La Roche Inc., priority 2011, dated 2014)

Columns and labels:
Format in all cases: biochemical
human Cathepsin S = human Cathepsin S (Homo sapiens (Human), UniProt P25774); experiment: Cathepsin enzyme inhibition assay (fluorogenic peptide substrate), Cat S; conditions: enzyme 1 nM, substrate Z-Val-Val-Arg-AMC 20 μM, pH 6.5
Experimental: (§1) Enzyme activity is measured by observing the increase in fluorescence intensity caused by cleavage of a peptide substrate containing a fluorophore whose emission is quenched in the intact peptide.
(§2) Assay buffer: 100 mM potassium phosphate pH 6.5, EDTA-Na 5 mM, Triton X-100 0.001%, DTT 5 mM.
(§3) Enzymes (all at 1 nM): human and mouse Cathepsin S, Cat K, Cat B, Cat L. Substrate (20 μM): Z-Val-Val-Arg-AMC, except for Cat K which uses Z-Leu-Arg-AMC (both from Bachem).
(§4) Excitation 360 nm, Emission 465 nm.
(§5) Enzyme is added to the substance dilutions in 96-well microtitre plates and the reaction is started with substrate. […] IC50 are calculated by standard methods. Inhibition of human Cat S, mouse Cat S, human Cat K, mouse Cat K, human Cat B, mouse Cat B, human Cat L and mouse Cat L have been measured separately.

human Cat L = human Cat L (Homo sapiens (Human), UniProt P07711); experiment: Cathepsin enzyme inhibition assay (fluorogenic peptide substrate), Cat L; conditions: enzyme 1 nM, substrate Z-Val-Val-Arg-AMC 20 μM, pH 6.5
human Cat L, sequence (P07711 114-333): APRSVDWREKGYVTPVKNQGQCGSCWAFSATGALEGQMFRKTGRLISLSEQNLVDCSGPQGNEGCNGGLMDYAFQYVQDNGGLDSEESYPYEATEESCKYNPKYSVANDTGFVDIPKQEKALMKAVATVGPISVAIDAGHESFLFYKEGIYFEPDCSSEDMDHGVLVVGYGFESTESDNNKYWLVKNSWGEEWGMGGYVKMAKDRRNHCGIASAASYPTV
Experimental: as §1, §2, §3, §4, §5

human Cat K = human Cat K (Homo sapiens (Human), UniProt P43235); experiment: Cathepsin enzyme inhibition assay (fluorogenic peptide substrate), Cat K; conditions: enzyme 1 nM, substrate Z-Leu-Arg-AMC 20 μM, pH 6.5
human Cat K, sequence (P43235 115-329): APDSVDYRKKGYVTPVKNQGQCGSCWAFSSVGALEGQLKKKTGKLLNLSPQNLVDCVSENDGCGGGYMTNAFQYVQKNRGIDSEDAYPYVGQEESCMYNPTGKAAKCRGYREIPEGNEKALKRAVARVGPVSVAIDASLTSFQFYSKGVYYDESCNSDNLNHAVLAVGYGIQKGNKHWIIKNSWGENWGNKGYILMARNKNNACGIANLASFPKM
Experimental: as §1, §2, §3, §4, §5

human Cat B = human Cat B (Homo sapiens (Human), UniProt P07858); experiment: Cathepsin enzyme inhibition assay (fluorogenic peptide substrate), Cat B; conditions: enzyme 1 nM, substrate Z-Val-Val-Arg-AMC 20 μM, pH 6.5
Experimental: as §1, §2, §3, §4, §5

human Cathepsin S, sequence (P25774 115-331): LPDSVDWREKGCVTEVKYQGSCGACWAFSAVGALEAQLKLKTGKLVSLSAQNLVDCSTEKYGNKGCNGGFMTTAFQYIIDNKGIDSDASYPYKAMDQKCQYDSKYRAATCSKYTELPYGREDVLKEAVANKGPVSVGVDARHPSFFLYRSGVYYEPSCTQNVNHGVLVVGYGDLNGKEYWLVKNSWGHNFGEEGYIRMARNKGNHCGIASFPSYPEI

| Compound | IC50 (human Cathepsin S) | IC50 (human Cat L) | IC50 (human Cat K) | IC50 (human Cat B) |
| --- | --- | --- | --- | --- |
| CC[C@H](NC(=O)[C@@H]1C[C@@H](S(=O)(=O)c2ccc(C)cc2C)CN1C(=O)OC(C)(C)C)C(=O)C(=O)NC1CC1 [Example 1, (2S,4R)-tert-butyl 2-((S)-1-(cyclopropylamino)-1,2-dioxopentan-3-ylcarbamoyl)-4-(2,4-dimethylphenylsulfonyl)pyrrolidine-1-carboxylate] | 0.829 nM | 1910 nM | 7900 nM | 11100 nM |
| CC[C@H](NC(=O)[C@@H]1C[C@@H](S(=O)(=O)c2ccc(Cl)cc2C)CN1C(=O)OC(C)(C)C)C(=O)C(=O)NC1CC1 [Example 2, (2S,4R)-tert-butyl 4-(4-chloro-2-methylphenylsulfonyl)-2-((S)-1-(cyclopropylamino)-1,2-dioxopentan-3-ylcarbamoyl)pyrrolidine-1-carboxylate] | – | 2590 nM | 9430 nM | 22600 nM |
| CC[C@H](NC(=O)[C@@H]1C[C@@H](S(=O)(=O)c2ccccc2C(F)(F)F)CN1c1ccccc1[N+](=O)[O-])C(=O)C(=O)NC1CC1 [Example 3, (2S,4R)—N—((S)-1-(cyclopropylamino)-1,2-dioxopentan-3-yl)-1-(2-nitrophenyl)-4-(2-(trifluoromethyl)phenylsulfonyl)pyrrolidine-2-carboxamide] | 1 nM | 1550 nM | 7430 nM | 3180 nM |
| CC[C@H](NC(=O)[C@@H]1C[C@@H](S(=O)(=O)c2ccc(F)cc2C(F)(F)F)CN1c1cc(C)nn1C1CCC1)C(=O)C(=O)NC1CC1 [Example 4, (2S,4R)-1-(1-cyclobutyl-3-methyl-1H-pyrazol-5-yl)-N—((S)-1-(cyclopropylamino)-1,2-dioxopentan-3-yl)-4-(4-fluoro-2-(trifluoromethyl)phenylsulfonyl)pyrrolidine-2-carboxamide] | 2.98 nM | 551 nM | 5890 nM | 2920 nM |
| CC[C@H](NC(=O)[C@@H]1C[C@@H](S(=O)(=O)c2ccccc2C(F)(F)F)CN1c1ccccc1[N+](=O)[O-])C(=O)c1nc2ccccc2o1 [Example 5, (2S,4R)-1-(2-Nitro-phenyl)-4-(2-trifluoromethyl-benzenesulfonyl)-pyrrolidine-2-carboxylic acid [(S)-1-(benzooxazole-2-carbonyl)-propyl]-amide] | 1.83 nM | – | – | 106000 nM |
| CC[C@H](NC(=O)[C@@H]1C[C@@H](S(=O)(=O)c2ccc(Br)cc2C(F)(F)F)CN1c1cc(C)nn1C1CCC1)C(=O)C(=O)NC1CC1 [Example 6, (2S,4R)-4-(4-bromo-2-(trifluoromethyl)phenylsulfonyl)-1-(1-cyclobutyl-3-methyl-1H-pyrazol-5-yl)-N—((S)-1-(cyclopropylamino)-1,2-dioxopentan-3-yl)pyrrolidine-2-carboxamide] | 0.976 nM | 202 nM | 168 nM | 1300 nM |
| CC[C@H](NC(=O)[C@@H]1C[C@@H](S(=O)(=O)c2ccccc2C(F)(F)F)CN1C(=O)C1(C(F)(F)F)CC1)C(=O)C(=O)NC1CC1 [Example 7, (2S,4R)—N—((S)-1-(cyclopropylamino)-1,2-dioxopentan-3-yl)-1-(1-(trifluoromethyl)cyclopropanecarbonyl)-4-(2-(trifluoromethyl)phenylsulfonyl)pyrrolidine-2-carboxamide] | 3.78 nM | 3040 nM | 11300 nM | 1850 nM |
| CC[C@H](NC(=O)[C@@H]1C[C@@H](S(=O)(=O)c2ccccc2Cl)CN1C(=O)C1(c2ccc(Cl)cc2)CC1)C(=O)C(=O)NC1CC1 [Example 8, (2S,4R)-1-(1-(4-chlorophenyl)cyclopropanecarbonyl)-4-(2-chlorophenylsulfonyl)-N—((S)-1-(cyclopropylamino)-1,2-dioxopentan-3-yl)pyrrolidine-2-carboxamide] | 0.296 nM | 4.3 nM | 27.6 nM | 62.7 nM |
| CCC[C@H](NC(=O)[C@@H]1C[C@@H](S(=O)(=O)c2ccccc2Cl)CN1C(=O)C1(c2ccc(Cl)cc2)CC1)C(=O)C(=O)NC1CC1 [Example 9, (2S,4R)-1-(1-(4-chlorophenyl)cyclopropanecarbonyl)-4-(2-chlorophenylsulfonyl)-N—((S)-1-(cyclopropylamino)-1,2-dioxohexan-3-yl)pyrrolidine-2-carboxamide] | 0.367 nM | 4.7 nM | 19.6 nM | 43.3 nM |
| CC[C@H](NC(=O)[C@@H]1C[C@@H](S(=O)(=O)c2ccc(OCC(F)(F)F)cc2Cl)CN1C(=O)C1(c2ncc(Cl)cc2F)CC1)C(=O)C(=O)NC1CC1 [Example 10, (2S,4R)-1-(1-(5-chloro-3-fluoropyridin-2-yl)cyclopropanecarbonyl)-4-(2-chloro-4-(2,2,2-trifluoroethoxy)phenylsulfonyl)-N—((S)-1-(cyclopropylamino)-1,2-dioxopentan-3-yl)pyrrolidine-2-carboxamide] | 2.88 nM | 55.4 nM | 118 nM | 829 nM |
| CC[C@H](NC(=O)[C@@H]1C[C@@H](S(=O)(=O)c2ccc(OCC(F)(F)F)cc2C(F)(F)F)CN1C(=O)C1(c2ccc(Cl)cc2)CC1)C(=O)C(=O)NC1CC1 [Example 11] | 1.38 nM | 63.2 nM | 390 nM | 291 nM |
| CC[C@H](NC(=O)[C@@H]1C[C@@H](S(=O)(=O)c2ccccc2Cl)CN1C(=O)C1(c2ccc(Cl)cc2)CC1)C(=O)c1nc2ccccc2o1 [Example 12, (2S,4R)—N—((S)-1-(benzo[d]oxazol-2-yl)-1-oxobutan-2-yl)-1-(1-(4-chlorophenyl)cyclopropanecarbonyl)-4-(2-chlorophenylsulfonyl)pyrrolidine-2-carboxamide] | 0.737 nM | 21.2 nM | 360 nM | 183 nM |
| CC[C@H](NC(=O)[C@@H]1C[C@@H](S(=O)(=O)c2ccccc2Cl)CN1C(=O)C1(c2ccc(Cl)cc2F)CC1)C(=O)C(=O)NC1CC1 [Example 13, (2S,4R)-1-(1-(4-chloro-2-fluorophenyl)cyclopropanecarbonyl)-4-(2-chlorophenylsulfonyl)-N—((S)-1-(cyclopropylamino)-1,2-dioxopentan-3-yl)pyrrolidine-2-carboxamide] | 0.704 nM | 11.3 nM | 67.9 nM | 142 nM |
| CC[C@H](NC(=O)[C@@H]1C[C@@H](S(=O)(=O)c2ccccc2Cl)CN1C(=O)C1(c2ccc(I)cc2)CC1)C(=O)C(=O)NC1CC1 [Example 17, (2S,4R)-4-(2-chlorophenylsulfonyl)-N—((S)-1-(cyclopropylamino)-1,2-dioxopentan-3-yl)-1-(1-(4-iodophenyl)cyclopropanecarbonyl)pyrrolidine-2-carboxamide] | 0.652 nM | 10.1 nM | 30.1 nM | – |
| CC(C)[C@H](NC(=O)[C@@H]1C[C@@H](S(=O)(=O)c2ccccc2Cl)CN1C(=O)C1(c2ccc(Cl)cc2)CC1)C(=O)C(=O)NC1CC1 [Example 28, (2S,4R)-1-(1-(4-chlorophenyl)cyclopropanecarbonyl)-4-(2-chlorophenylsulfonyl)-N—((S)-1-(cyclopropylamino)-4-methyl-1,2-dioxopentan-3-yl)pyrrolidine-2-carboxamide] | 0.328 nM | 5.2 nM | – | 97.3 nM |
| CCCCNC(=O)C(=O)[C@H](CC)NC(=O)[C@@H]1C[C@@H](S(=O)(=O)c2ccccc2Cl)CN1C(=O)C1(c2ccc(Cl)cc2)CC1 [Example 31, (2S,4R)—N—((S)-1-(butylamino)-1,2-dioxopentan-3-yl)-1-(1-(4-chlorophenyl)cyclopropanecarbonyl)-4-(2-chlorophenylsulfonyl)pyrrolidine-2-carboxamide] | – | 11.2 nM | 35.6 nM | 47.8 nM |
| CCC[C@H](NC(=O)[C@@H]1C[C@@H](S(=O)(=O)c2ccc(Cl)cc2Cl)CN1C(=O)C1(c2ccc(Cl)cc2)CC1)C(=O)C(=O)NC1CC1 [Example 42, (2S,4R)-1-(1-(4-chlorophenyl)cyclopropanecarbonyl)-N—((S)-1-(cyclopropylamino)-1,2-dioxohexan-3-yl)-4-(2,4-dichlorophenylsulfonyl)pyrrolidine-2-carboxamide] | 0.634 nM | – | 28.7 nM | 115 nM |
| CCNC(=O)C(=O)[C@H](CC)NC(=O)[C@@H]1C[C@@H](S(=O)(=O)c2ccccc2Cl)CN1C(=O)C1(c2ccc(Cl)cc2)CC1 [Example 43, (2S,4R)-1-(1-(4-chlorophenyl)cyclopropanecarbonyl)-4-(2-chlorophenylsulfonyl)-N—((S)-1-(ethylamino)-1,2-dioxopentan-3-yl)pyrrolidine-2-carboxamide] | 0.508 nM | 13.6 nM | – | 112 nM |
| CC(C)[C@H](NC(=O)[C@@H]1C[C@@H](S(=O)(=O)c2ccccc2Cl)CN1C(=O)C1(c2ncc(Cl)cc2F)CC1)C(=O)C(=O)NC1CC1 [Example 58, (2S,4R)-1-(1-(5-chloro-3-fluoropyridin-2-yl)cyclopropanecarbonyl)-4-(2-chlorophenylsulfonyl)-N—((S)-1-(cyclopropylamino)-4-methyl-1,2-dioxopentan-3-yl)pyrrolidine-2-carboxamide] | – | 0.9 nM | 49.1 nM | 323 nM |
